Results taken from ChEMBL document CHEMBL5131504, “Anthraquinone derivatives as ADP-competitive inhibitors of liver pyruvate kinase” (Eur J Med Chem, 2022).

Legend:
[1] = target: T1, Pyruvate kinase PKLR (Homo sapiens, UniProt P30613); test: Inhibition of PKL (unknown origin) at 10 uM for 30 mins by Kinase-Glo Max reagent based luminescence assay
Target sequence in this assay (P30613 whole entry, looked up): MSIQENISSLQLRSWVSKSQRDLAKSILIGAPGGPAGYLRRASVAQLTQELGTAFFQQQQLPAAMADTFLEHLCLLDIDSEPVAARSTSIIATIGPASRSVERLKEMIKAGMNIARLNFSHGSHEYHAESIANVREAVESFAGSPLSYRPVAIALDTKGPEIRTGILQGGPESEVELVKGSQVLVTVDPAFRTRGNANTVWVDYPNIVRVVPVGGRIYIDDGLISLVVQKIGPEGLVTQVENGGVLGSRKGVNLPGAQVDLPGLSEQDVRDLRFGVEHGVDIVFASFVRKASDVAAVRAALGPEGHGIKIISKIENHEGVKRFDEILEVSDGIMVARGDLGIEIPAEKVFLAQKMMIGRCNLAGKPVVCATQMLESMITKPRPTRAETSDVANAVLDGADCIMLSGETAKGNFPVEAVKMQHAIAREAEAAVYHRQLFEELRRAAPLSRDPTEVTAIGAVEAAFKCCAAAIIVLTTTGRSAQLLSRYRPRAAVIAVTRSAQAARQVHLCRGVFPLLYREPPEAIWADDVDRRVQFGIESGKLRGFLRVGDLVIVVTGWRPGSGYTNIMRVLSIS

[2] = target: T1, Pyruvate kinase PKLR; test: Inhibition of PKL in human PKM2 knockout HepG2 cells at 10 uM incubated for 5 mins by Microplate reader based analysis relative to control; type: cell-based
Target sequence in this assay (P30613 whole entry, looked up): as above

[3] = target: T1, Pyruvate kinase PKLR; test: Inhibition of PKL (unknown origin) for 30 mins by Kinase-Glo Max reagent based luminescence assay
Target sequence in this assay (P30613 whole entry): as the sequence (P30613 whole entry, looked up) above

Compound | inhibition [1] | inhibition [2] | IC50 [3]
O=C(O)CNc1cc2c(cc1O)C(=O)c1ccccc1C2=O | 82% | 82.7% | –
CSCCC(NS(=O)(=O)c1cc2c(c(O)c1O)C(=O)c1ccccc1C2=O)C(=O)O (stereo not given) | 78% | – | 1.4 µM
O=C1c2ccccc2C(=O)c2c1cc(S(=O)(=O)N[C@@H](CO)C(=O)O)c(O)c2O | 97% | – | 0.9 µM
O=C(O)CCCNS(=O)(=O)c1cc2c(c(O)c1O)C(=O)c1ccccc1C2=O | 101% | – | 7.5 µM
O=C1c2ccccc2C(=O)c2c1cc(S(=O)(=O)N1CCCC(C(=O)O)C1)c(O)c2O (stereo not given) | 92% | – | 0.16 µM
O=C(O)Cc1ccc(CNS(=O)(=O)c2cc3c(c(O)c2O)C(=O)c2ccccc2C3=O)cc1C(=O)O | 99% | – | 0.3 µM
COc1c(S(=O)(=O)O)cc2c(c1OC)C(=O)c1ccccc1C2=O | 19% | – | –
O=C(O)c1cc2c(c(O)c1O)C(=O)c1ccccc1C2=O | 94% | – | 1.4 µM
O=C(O)CC[C@H](NC(=O)N1CCN(S(=O)(=O)c2cc3c(c(O)c2O)C(=O)c2ccccc2C3=O)CC1)C(=O)O | 99% | – | 0.55 µM
O=C1c2ccccc2C(=O)c2c1cc(-c1ccc(O)c(O)c1)c(O)c2O | 16% | – | –
O=C(O)CNS(=O)(=O)c1cc2c(cc1O)C(=O)c1ccccc1C2=O | 86% | 78.7% | –
NS(=O)(=O)c1cccc(-c2cc3c(c(O)c2O)C(=O)c2ccccc2C3=O)c1 | 66% | – | –
O=C(O)Cc1ccc(CNc2cc3c(cc2O)C(=O)c2ccccc2C3=O)cc1C(=O)O | 94% | 50.2% | –
O=C1c2ccccc2C(=O)c2c1cc(S(=O)(=O)O)c(O)c2O [Alizarin Red S] | 100% | 54% | 0.2 µM
O=C(O)CNC(=O)CNC(=O)CNS(=O)(=O)c1cc2c(c(O)c1O)C(=O)c1ccccc1C2=O | 92% | – | 0.7 µM
O=C1c2ccccc2C(=O)c2cc(S(=O)(=O)N3CCCC(C(=O)O)C3)c(O)cc21 (stereo not given) | 58% | 40.6% | –
CS(=O)(=O)c1cccc(-c2cc3c(c(O)c2O)C(=O)c2ccccc2C3=O)c1 | 31% | – | –
O=C(O)CC(Nc1cc2c(c(O)c1O)C(=O)c1ccccc1C2=O)C(=O)O (stereo not given) | 90% | 83.5% | 2.5 µM
O=C1c2ccccc2C(=O)c2c1cc(-c1ccc(O)cc1)c(O)c2O | 39% | – | –
O=C(O)CNS(=O)(=O)c1cc2c(c(O)c1O)C(=O)c1ccccc1C2=O | 100% | – | 0.2 µM
O=C(O)Cc1ccc(CNc2cc3c(c(O)c2O)C(=O)c2ccccc2C3=O)cc1C(=O)O | 79% | 79.3% | 1.3 µM
O=C(O)CC[C@H](NC(=O)C1CCCN(S(=O)(=O)c2cc3c(c(O)c2O)C(=O)c2ccccc2C3=O)C1)C(=O)O (stereo not given in full) | 94% | – | 1.3 µM
O=C(O)Cc1ccc(CNc2cc3c(c(O)c2O)C(=O)c2ccccc2C3=O)cc1 | 96% | 82.5% | 3.8 µM
O=C(O)CC[C@H](NC(=O)C1CCN(S(=O)(=O)c2cc3c(c(O)c2O)C(=O)c2ccccc2C3=O)CC1)C(=O)O | 45% | – | –
O=C(O)CC(O)(CC(=O)N1CCN(S(=O)(=O)c2cc(O)c3c(c2)C(=O)c2ccccc2C3=O)CC1)C(=O)O (stereo not given) | 3% | – | –
Nc1c(S(=O)(=O)O)cc2c(c1O)C(=O)c1ccccc1C2=O | 77% | – | –
O=C1c2ccccc2C(=O)c2c1cc(S(=O)(=O)N1CCCC(C(=O)N[C@@H](Cc3c[nH]cn3)C(=O)O)C1)c(O)c2O (stereo not given in full) | 27% | – | –
O=C(O)C[C@H](NC(=O)C1CCCN(S(=O)(=O)c2cc3c(c(O)c2O)C(=O)c2ccccc2C3=O)C1)C(=O)O (stereo not given in full) | 72% | – | 1.9 µM
O=C1c2ccccc2C(=O)c2c1cc(S(=O)(=O)N1CCNCC1)c(O)c2O | 98% | – | 0.15 µM
O=C(O)CCNS(=O)(=O)c1cc2c(c(O)c1O)C(=O)c1ccccc1C2=O | 102% | – | 5.8 µM

Continued, values first:

inhibition [1] | inhibition [2] | IC50 [3] | Compound
35% | – | – | O=C(O)C[C@H](NC(=O)C1CCN(S(=O)(=O)c2cc3c(c(O)c2O)C(=O)c2ccccc2C3=O)CC1)C(=O)O
87% | – | 4.8 µM | O=C1c2ccccc2C(=O)c2c1cc(S(=O)(=O)N1CCC(C(=O)O)CC1)c(O)c2O
22% | – | – | O=C1c2ccccc2C(=O)c2c1cc(C(=O)N1CCNCC1)c(O)c2O
63% | 22.6% | – | O=C1c2ccccc2C(=O)c2cc(S(=O)(=O)N3CCN(C(=O)CC(O)(C(=O)O)C(=O)O)CC3)c(O)cc21
101% | – | 1.2 µM | COC[C@H](NS(=O)(=O)c1cc2c(c(O)c1O)C(=O)c1ccccc1C2=O)C(=O)O
57% | 59.7% | – | O=C(O)CC(Nc1cc2c(cc1O)C(=O)c1ccccc1C2=O)C(=O)O (stereo not given)
65% | – | 7.3 µM | O=C1c2ccccc2C(=O)c2c(O)cc(S(=O)(=O)O)cc21
100% | – | 0.2 µM | O=C(O)CC(O)(CC(=O)N1CCN(S(=O)(=O)c2cc3c(c(O)c2O)C(=O)c2ccccc2C3=O)CC1)C(=O)O (stereo not given)
76% | 41.1% | – | O=C(O)Cc1ccc(CNc2cc3c(cc2O)C(=O)c2ccccc2C3=O)cc1
95% | – | 3.4 µM | O=C1c2ccccc2C(=O)c2cc(S(=O)(=O)O)c(O)cc21
99% | – | 0.29 µM | O=C(O)Cc1ccc(CNC(=O)N2CCN(S(=O)(=O)c3cc4c(c(O)c3O)C(=O)c3ccccc3C4=O)CC2)cc1C(=O)O
61% | 34% | 1.7 µM | O=C(O)Cc1ccc(CNC(=O)Nc2cc3c(c(O)c2O)C(=O)c2ccccc2C3=O)cc1C(=O)O
51% | – | – | O=C1c2ccccc2C(=O)c2c1ccc(O)c2O
-1% | – | – | O=C(O)CC(O)(CC(=O)N1CCN(C(=O)c2cc3c(c(O)c2O)C(=O)c2ccccc2C3=O)CC1)C(=O)O (stereo not given)
45% | – | – | O=C1c2ccccc2C(=O)c2cc(S(=O)(=O)O)ccc21
97% | – | 19 µM | O=C(O)CCCCNS(=O)(=O)c1cc2c(c(O)c1O)C(=O)c1ccccc1C2=O
102% | – | 4.1 µM | O=C(O)CNC(=O)CNS(=O)(=O)c1cc2c(c(O)c1O)C(=O)c1ccccc1C2=O
